Experimental data taken from US20150374673A1, “Combination Therapy for the Treatment of Nosocomial Pneumonia” (priority 2013, published 2015).

Columns and labels:
[1] = test system: K. pneumoniae; test: MIC, CLSI broth microdilution in CAMHB with 0-10% pulmonary surfactant (avibactam fixed at 4 μg/mL in combination); assay type: cell-based; details: Klebsiella pneumoniae
Procedure: The bacterial strains used in this testing were part of the microbiological culture collection housed at AstraZeneca R&D Boston (AstraZeneca Research Collection, designated ARC). The panel of bacterial isolates used for this testing was comprised of five CLSI QC reference strains and the remainder were either recent clinical isolates expressing β-lactamases or isolates from the primary bacterial screening panels.
MIC values were determined using the CLSI broth microdilution methodology with slight variation. Stock compound mother plates were prepared and used to spot 2 μL aliquots of serial 2-fold drug dilutions to columns 1-11 of 96-well daughter plates using a Perkin-Elmer MiniTrak™ MultiPosition dispenser. […] An inoculum volume of 100 μL (5×10E^5 CFU/mL) in CAMHB containing 0, 1, 2.5, 5, or 10% pulmonary surfactant was added using a multichannel Finnpipette® to each well of the 96-well plate.
The minimum inhibitory concentration (MIC) values against each organism/drug combination were determined using broth microdilution methodology according to CLSI guidelines. The recommended reference bacterial strains for each test group and reference compounds were incorporated into each test. For Gram-negatives, the reference bacterial strains were Escherichia coli ATCC 25922, E. coli ATCC 35218, Klebsiella pneumoniae ATCC 700603, and Pseudomonas aeruginosa ATCC 27853. Staphylococcus aureus ATCC 29213 was the reference bacterial strain for the Gram-positives.
MIC values for individual isolates were read visually. The MICs for each compound or combination in pulmonary surfactant was compared to the compound or combination tested in CAMHB alone.

[2] = test system: P. aeruginosa; test: Neutropenic thigh infection model (CD-1 mice), exposure response of ceftazidime q2h and avibactam; assay type: in vivo, Pseudomonas aeruginosa; details: for % fT>CT required to support a bacteriostatic effect: CT 1 mg/L; for Emax model maximum / Emax model minimum: ceftazidime q2h and avibactam q2h, SE between brackets; for % fT > CT1 of avibactam associated with 24-h stasis: CT1 = threshold concentration of 1 mg/L
Procedure: CD-1 neutropenic mice were infected with appr. 10^6 cfu β-lactamase-producing P. aeruginosa strains in the thigh.
Outbred female CD-1 mice (Charles River, Netherlands), 4 to 5 weeks old, weighing 20 to 25 g were used in the experiments. Granulocytopenia was induced by two doses of cyclophosphamide s.c.: one at four days (150 mg/kg) and the other at one day (100 mg/kg) before the infection experiment.
The neutropenic mice were infected with 2 P. aeruginosa strains per animal, one in the left and one in the right thigh. 0.05 mL of bacterial suspension consisting of approximately 10^5-10^6 bacteria was inoculated intramuscularly. […] All dosing regimens were performed in at least two animals. At t=0 h, 2 mice were humanely sacrificed to determine the initial inoculum just before treatment. All other animals were sacrificed at t=24 h unless the welfare of the animals indicated earlier termination was necessary, following animal welfare regulations. Thighs were taken and moved to a pre-cooled 10-mL plastic tube (Transport Tube, Omnilabo, NL) ? containing 2 mL phosphate buffered saline (PBS; NaCl 8.00 g/L, Na2HPO42H2 1.44 g/L, KH2PO4 0.26 g/L, pH 7.2-7.4). Subsequently thighs were ground using an Ultra-Turrax (IKA Labortechnik, Germany). A tenfold dilution series was prepared and 3×10 μL plated (Chromagar, Biomerieux, NL) per dilution. The following day, colonies were counted and the number of cfu per thigh calculated. The drug effect was then determined as the difference between the log10[cfu/thigh] values at t=24 h and t=0 h (mean value of 2 mice) expressed as “dcfu”.
The amount of avibactam administered varied in frequency and dose. […] The drug effect was determined as the difference between the log10 [cfu/thigh] values at t=24 h and t=0 h (mean value of 2 mice) expressed as dcfu. Free drug concentrations were used in all calculations. […] Oral presentation at the ? 52nd Interscience Conference on Antimicrobial Agents and Chemotherapy, San Francisco, Calif. Abstract #A-1760).

[3] = 6 P. aeruginosa strains, with fixed ceftazidime q2h, thigh
[4] = strain 1, thigh infection, Dose CAZ 32 mg/kg
[5] = strain 5, thigh infection, Dose CAZ 64 mg/kg
[6] = strain 7, thigh infection, Dose CAZ 64 mg/kg
[7] = strain 11, thigh infection, Dose CAZ 64 mg/kg
[8] = strain 18, thigh infection, Dose CAZ 64 mg/kg
[9] = strain 19, thigh infection, Dose CAZ 32 mg/kg

SMILES: NC(=O)[C@@H]1CC[C@@H]2CN1C(=O)N2OS(=O)(=O)[O-].[Na+] [avibactam, [(2S,5R)-2-carbamoyl-7-oxo-1,6-diazabicyclo[3.2.1]octan-6-yl]hydrogen sulfate]
- MIC ([1]; ATCC700603, K. pneumoniae ARC561 (ATCC 700603; SHV-18, OXA-2, OKP-6), surfactant 0%): > 64 µg/mL
- MIC ([1]; ATCC700603, K. pneumoniae ARC561 (ATCC 700603; SHV-18, OXA-2, OKP-6), surfactant 1%): > 64 µg/mL
- MIC ([1]; ATCC700603, K. pneumoniae ARC561 (ATCC 700603; SHV-18, OXA-2, OKP-6), surfactant 2.5%): > 64 µg/mL
- MIC ([1]; ATCC700603, K. pneumoniae ARC561 (ATCC 700603; SHV-18, OXA-2, OKP-6), surfactant 5%): 64 µg/mL
- MIC ([1]; ATCC700603, K. pneumoniae ARC561 (ATCC 700603; SHV-18, OXA-2, OKP-6), surfactant 10%): 64 µg/mL
- MIC ([1]; K. pneumoniae ARC1865 (Primary Screening Panel), surfactant 1%): > 64 µg/mL
- MIC ([1]; K. pneumoniae ARC1865 (Primary Screening Panel), surfactant 2.5%): 64 µg/mL
- MIC ([1]; K. pneumoniae ARC1865 (Primary Screening Panel), surfactant 5%): > 64 µg/mL
- MIC ([1]; K. pneumoniae ARC1865 (Primary Screening Panel), surfactant 10%): > 64 µg/mL
- MIC ([1]; K. pneumoniae ARC1865 (Primary Screening Panel), surfactant concentration cell empty): > 64 µg/mL
- MIC ([1]; K. pneumoniae ARC2528 (Clinical isolate), surfactant 0%): 64 µg/mL
- MIC ([1]; K. pneumoniae ARC2528 (Clinical isolate), surfactant 1%): 64 µg/mL
- MIC ([1]; K. pneumoniae ARC2528 (Clinical isolate), surfactant 2.5%): 64 µg/mL
- MIC ([1]; K. pneumoniae ARC2528 (Clinical isolate), surfactant 5%): 64 µg/mL
- MIC ([1]; K. pneumoniae ARC2528 (Clinical isolate), surfactant 10%): 32 µg/mL
- MIC ([1]; K. pneumoniae ARC2929 (KPC-3), surfactant 0%): 8 µg/mL
- MIC ([1]; K. pneumoniae ARC2929 (KPC-3), surfactant 1%): 8 µg/mL
- MIC ([1]; K. pneumoniae ARC2929 (KPC-3), surfactant 2.5%): 8 µg/mL
- MIC ([1]; K. pneumoniae ARC2929 (KPC-3), surfactant 5%): 8 µg/mL
- MIC ([1]; K. pneumoniae ARC2929 (KPC-3), surfactant 10%): 8 µg/mL
- MIC ([1]; K. pneumoniae ARC2945 (KPC-2, SHV-11, TEM-1, OXA-9), surfactant 0%): 8 µg/mL
- MIC ([1]; K. pneumoniae ARC2945 (KPC-2, SHV-11, TEM-1, OXA-9), surfactant 1%): 8 µg/mL
- MIC ([1]; K. pneumoniae ARC2945 (KPC-2, SHV-11, TEM-1, OXA-9), surfactant 2.5%): 8 µg/mL
- MIC ([1]; K. pneumoniae ARC2945 (KPC-2, SHV-11, TEM-1, OXA-9), surfactant 5%): 8 µg/mL
- MIC ([1]; K. pneumoniae ARC2945 (KPC-2, SHV-11, TEM-1, OXA-9), surfactant 10%): 8 µg/mL
- MIC ([1]; K. pneumoniae ARC3713 (CTX-M-15, OXA-1/30, SHV-5, TEM-1), surfactant 0%): 16 µg/mL
- MIC ([1]; K. pneumoniae ARC3713 (CTX-M-15, OXA-1/30, SHV-5, TEM-1), surfactant 1%): 16 µg/mL
- MIC ([1]; K. pneumoniae ARC3713 (CTX-M-15, OXA-1/30, SHV-5, TEM-1), surfactant 2.5%): 16 µg/mL
- MIC ([1]; K. pneumoniae ARC3713 (CTX-M-15, OXA-1/30, SHV-5, TEM-1), surfactant 5%): 16 µg/mL
- MIC ([1]; K. pneumoniae ARC3713 (CTX-M-15, OXA-1/30, SHV-5, TEM-1), surfactant 10%): 16 µg/mL
- mean % fT>CT 1 mg/L for static effect [2, 3]: 36.3%
- range of % fT>CT 1 mg/L for static effect [2, 3]: 14.1-62.5
- % fT>CT required to support a bacteriostatic effect ([2]; strain 7, thigh): 30.2
- % fT>CT required to support a bacteriostatic effect ([2]; strain 18, thigh): 74.1
- % fT>CT required for static effect ([2]; CT of 1 mg/L, dose fractionation studies, 2 strains, with ceftazidime q2h, thigh): 30.2-74.1
- % fT > CT1 of avibactam associated with 24-h stasis, mean ([2]; mean of 6 strains (sd 17.8), thigh infection, CT1 = 1 mg/L): 36.3%
- Emax model maximum ([2]; strain 1): 1.26
- Emax model minimum ([2]; strain 1): ≈′−727.5
- TDD AVI associated with 24-h stasis [2, 4]: 123.70 mg/kg
- log TDD AVI associated with 24-h stasis [2, 4]: 2.09
- % fT > CT1 of avibactam associated with 24-h stasis [2, 4]: 37.2%
- Emax model maximum ([2]; strain 5): ≈0.70
- Emax model minimum ([2]; strain 5): −3.25 (0.95)
- TDD AVI associated with 24-h stasis [2, 5]: 33.59 mg/kg
- log TDD AVI associated with 24-h stasis [2, 5]: 1.53
- % fT > CT1 of avibactam associated with 24-h stasis [2, 5]: 14.1%
- Emax model maximum ([2]; strain 7): 1.81 (0.29)
- Emax model minimum ([2]; strain 7): −2.83 (1.41)
- TDD AVI associated with 24-h stasis [2, 6]: 267.47 mg/kg
- log TDD AVI associated with 24-h stasis [2, 6]: 2.43
- % fT > CT1 of avibactam associated with 24-h stasis [2, 6]: 50.4%
- Emax model maximum ([2]; strain 11): 1.40 (0.50)
- Emax model minimum ([2]; strain 11): −2.95 (0.41)
- TDD AVI associated with 24-h stasis [2, 7]: 77.88 mg/kg
- log TDD AVI associated with 24-h stasis [2, 7]: 1.89
- % fT > CT1 of avibactam associated with 24-h stasis [2, 7]: 29.1%
- Emax model maximum ([2]; strain 18): 0.83 (0.36)
- Emax model minimum ([2]; strain 18): −2.36 (0.23)
- TDD AVI associated with 24-h stasis [2, 8]: 58.91 mg/kg
- log TDD AVI associated with 24-h stasis [2, 8]: 1.77
- % fT > CT1 of avibactam associated with 24-h stasis [2, 8]: 24.2%
- Emax model maximum ([2]; strain 19): 2.46 (0.22)
- Emax model minimum ([2]; strain 19): −1.42 (0.46)
- TDD AVI associated with 24-h stasis [2, 9]: 541.34 mg/kg
- log TDD AVI associated with 24-h stasis [2, 9]: 2.73
- % fT > CT1 of avibactam associated with 24-h stasis [2, 9]: 62.5%
- effect on ceftazidime static % fT>MIC ([2]; thigh infection, all strains): reduced
